Assay results reported in PubChem BioAssay AID588415 (Sanford-Burnham Center for Chemical Genomics, 2011).
The source made the active and inactive calls.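 The calls were made as follows: active = IC50 at or below 20 µM; inactive = the rest.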

target: glucose-6-phosphate dehydrogenase-6-phosphogluconolactonase (PfGluPho), Plasmodium falciparum 3D7; assay: PfG6PD enzyme inhibitors, SAR follow-up, biochemical, fluorescence intensity (AID 588415); details: recombinant PfG6PD, resazurin-diaphorase NADPH fluorescence

| IC50 | SMILES |
| --- | --- |
| 8.81 µM | CCN(CC)CCNC(=O)c1ccc2c(c1)NC(=O)/C(=C/c1ccccc1)S2 |
| 8.71 µM | Cc1cccc(C(=O)Nc2nnc(S(=O)(=O)N3CCCCCC3)s2)c1 |
| inactive | CCN(CC)CCNC(=O)c1ccc2c(c1)NC(=O)/C(=C\c1ccc(OC)cc1)S2 |
| 12.2 µM | CCN1CCCC1CNC(=O)c1ccc2c(c1)NC(=O)c1ccccc1S2 (centres undefined) |
| 7.36 µM | CCN(CC)CCNC(=O)c1ccc2c(c1)NC(=O)/C(=C\c1ccccc1F)S2 |
| > 80 µM (inactive) | CC1Cc2ccccc2N1S(=O)(=O)c1nnc(NC(=O)c2cccc(Br)c2)s1 (centres undefined) |
| inactive | O=C1Nc2cc(C(=O)NCCN3CCCCCC3)ccc2S/C1=C/c1ccccc1F |
| > 80 µM (inactive) | O=C(Nc1nnc(S(=O)(=O)N2CCCCCC2)s1)c1ccccc1F |
| 4.89 µM | COc1cccc(C(=O)Nc2nnc(S(=O)(=O)N3CCCCCC3)s2)c1 |
| > 80 µM (inactive) | Cc1ccc(C(=O)Nc2nnc(S(=O)(=O)N3CCCc4ccccc43)s2)cc1 |
| > 80 µM (inactive) | CCN(CCNC(=O)c1ccc2c(c1)N(CC)C(=O)c1ccccc1S2)c1ccccc1 |
| 7.35 µM | O=C(Nc1nnc(S(=O)(=O)N2CCCCCC2)s1)c1cccc(Br)c1 |
| > 80 µM (inactive) | O=C(Nc1nnc(S(=O)(=O)N2CCCCC2)s1)c1cccc(F)c1 |
| > 80 µM (inactive) | CC1Cc2ccccc2N1S(=O)(=O)c1nnc(NC(=O)c2cccc(F)c2)s1 (centres undefined) |
| 5.6 µM | O=C(Nc1nnc(S(=O)(=O)N2CCCCCC2)s1)c1cccc(Cl)c1 |
| inactive | CN(C)CCNC(=O)c1ccc2c(c1)NC(=O)/C(=C\c1cccc(Cl)c1)S2 |
| > 80 µM (inactive) | O=C(Nc1nnc(S(=O)(=O)N2CCCCCC2)s1)C1CCCCC1 |
| > 80 µM (inactive) | Cc1cccc(C(=O)Nc2nnc(S(=O)(=O)N3c4ccccc4CC3C)s2)c1 (centres undefined) |
| > 80 µM (inactive) | CCN1CCCC1CNC(=O)c1ccc2c(c1)N(Cc1cccc(F)c1)C(=O)c1ccccc1S2 (centres undefined) |
| 16.2 µM | CCN(CC)CCNC(=O)c1ccc2c(c1)NC(=O)/C(=C\c1ccccc1Cl)S2 |
| 1.75 µM | CCN1CCCC1CNC(=O)c1ccc2c(c1)NC(=O)/C(=C\c1ccccc1F)S2 (centres undefined) |
| > 80 µM (inactive) | Cc1cccc(C(=O)Nc2nnc(S(=O)(=O)N3CCCc4ccccc43)s2)c1 |

| IC50 | SMILES |
| --- | --- |
| inactive | CCN(CC)CCNC(=O)c1ccc2c(c1)NC(=O)c1ccccc1S2 |
| > 80 µM (inactive) | O=C(Nc1nnc(S(=O)(=O)N2CCCCCC2)s1)c1cccc(F)c1 |
| > 80 µM (inactive) | O=C(Nc1nnc(S(=O)(=O)N2CCCCCC2)s1)c1ccco1 |
| 13 µM | Cc1cccc(C(=O)Nc2nnc(S(=O)(=O)N3CCC(C)CC3)s2)c1 |
| > 80 µM (inactive) | Cc1ccccc1C(=O)Nc1nnc(S(=O)(=O)N2CCCCCC2)s1 |
| 4.17 µM | Cc1cccc(C(=O)Nc2nnc(S(=O)(=O)N3CCOCC3)s2)c1 |
| inactive | O=C(Nc1nnc(S(=O)(=O)N2CCOCC2)s1)c1cccc(F)c1 |
| > 80 µM (inactive) | CCOc1ccc(C(=O)Nc2nnc(S(=O)(=O)N3CCCCCC3)s2)cc1 |
| > 80 µM (inactive) | COc1cccc(/C=C2/Sc3ccc(C(=O)NCCN4CCCCCC4)cc3NC2=O)c1 |
| inactive | COc1ccc(C(=O)Nc2nnc(S(=O)(=O)N3CCCCCC3)s2)cc1 |
| > 80 µM (inactive) | CCN1CCCC1CNC(=O)c1ccc2c(c1)N(Cc1ccc(C(F)(F)F)cc1)C(=O)c1ccccc1S2 (centres undefined) |
| inactive | CCN(CC)CCNC(=O)c1ccc2c(c1)NC(=O)/C(=C\c1ccc(OC)c(OC)c1)S2 |
| 11.1 µM | O=C1Nc2cc(C(=O)NCCN3CCCC3)ccc2S/C1=C/c1ccccc1Cl |
| 11.8 µM | Cc1cccc(/C=C2/Sc3ccc(C(=O)NCCN4CCCC4)cc3NC2=O)c1 |
| inactive | O=C(Nc1nnc(S(=O)(=O)N2CCCCCC2)s1)c1ccccc1 |
| > 80 µM (inactive) | CCN(CC)CCNC(=O)c1ccc2c(c1)N(Cc1ccccc1Cl)C(=O)c1ccccc1S2 |
| > 80 µM (inactive) | CCN1CCCC1CNC(=O)c1ccc2c(c1)N(Cc1ccccc1F)C(=O)c1ccccc1S2 (centres undefined) |
| > 80 µM (inactive) | CCN1CCCC1CNC(=O)c1ccc2c(c1)N(Cc1ccccc1Cl)C(=O)c1ccccc1S2 (centres undefined) |
| > 80 µM (inactive) | Cc1ccc(C(=O)Nc2nnc(S(=O)(=O)N3CCCCCC3)s2)cc1 |
| > 80 µM (inactive) | O=C(Nc1nnc(S(=O)(=O)N2CCCc3ccccc32)s1)c1cccc(F)c1 |
| 2.56 µM | CCN1CCCC1CNC(=O)c1ccc2c(c1)NC(=O)/C(=C\c1ccccc1Cl)S2 (centres undefined) |
| > 80 µM (inactive) | COc1ccccc1C(=O)Nc1nnc(S(=O)(=O)N2CCCCCC2)s1 |

| IC50 | SMILES |
| --- | --- |
| > 80 µM (inactive) | CCCN(CCC)CCNC(=O)c1ccc2c(c1)NC(=O)/C(=C\c1ccc(C)cc1)S2 |
| inactive | Cc1ccc(CN2C(=O)c3ccccc3Sc3ccc(C(=O)NCCN(C)C)cc32)cc1 |
| > 80 µM (inactive) | Cc1ccccc1C(=O)Nc1nnc(S(=O)(=O)N2CCCc3ccccc32)s1 |
| 1.73 µM | CCN1CCCC1CNC(=O)c1ccc2c(c1)NC(=O)/C(=C/c1ccccc1F)S2 (centres undefined) |
| inactive | O=C1Nc2cc(C(=O)NCCN3CCCCCC3)ccc2S/C1=C/c1ccccc1Cl |
| > 80 µM (inactive) | CCN(CCNC(=O)c1ccc2c(c1)N(Cc1cc(C)ccc1C)C(=O)c1ccccc1S2)c1ccccc1 |
| > 80 µM (inactive) | Cc1ccc(C(=O)Nc2nnc(S(=O)(=O)N3c4ccccc4CC3C)s2)cc1 (centres undefined) |
| > 80 µM (inactive) | CCN(CCNC(=O)c1ccc2c(c1)NC(=O)c1ccccc1S2)c1ccccc1 |
| inactive | CCN(CC)CCNC(=O)c1ccc2c(c1)N(Cc1ccc(C)cc1)C(=O)c1ccccc1S2 |
| inactive | COc1ccc(/C=C2/Sc3ccc(C(=O)NCCN4CCCC4)cc3NC2=O)cc1 |
| > 80 µM (inactive) | COc1ccc(/C=C2/Sc3ccc(C(=O)NCCN4CCCCCC4)cc3NC2=O)cc1 |
| > 80 µM (inactive) | CCN(CC)CCNC(=O)c1ccc2c(c1)N(Cc1cc(C)ccc1C)C(=O)c1ccccc1S2 |
| > 80 µM (inactive) | COc1ccc(C(=O)Nc2nnc(S(=O)(=O)N3CCCCCC3)s2)cc1OC |
| > 80 µM (inactive) | COc1ccc(/C=C2/Sc3ccc(C(=O)NCCN(C)C)cc3NC2=O)cc1 |
| > 80 µM (inactive) | Cc1cccc(N2CCN(CCNC(=O)c3ccc4c(c3)NC(=O)c3ccccc3S4)CC2)c1C |
| 6.36 µM | CCC(C)N(CCNC(=O)c1ccc2c(c1)NC(=O)c1ccccc1S2)C1CCCCC1 (centres undefined) |
| inactive | CN(CCNC(=O)c1ccc2c(c1)NC(=O)c1ccccc1S2)C1CCCCC1 |
| > 80 µM (inactive) | CCCN(CCC)CCNC(=O)c1ccc2c(c1)NC(=O)/C(=C/c1ccccc1)S2 |
| inactive | O=C(Nc1nnc(S(=O)(=O)N2CCCCCC2)s1)c1ccc(F)cc1 |
| inactive | COc1cccc(/C=C2/Sc3ccc(C(=O)NCCN4CCCC4)cc3NC2=O)c1 |
